Measured values as given in patent US11111259B2, “Acylsulfonamide derivatives for treating senescence-associated diseases and disorders” (Unity Biotechnology, Inc., priority 2015, dated 2021).
pEC50, pKd: −log10 of the molar value.

Key:
BCL-xL = BCL-xL (Homo sapiens, UniProt Q07817); assay: BCL-binding assay (AlphaLISA competition, BAD peptide); details: 6xHis BCL-xL with biotinylated BAD peptide, 24 hr incubation
Method: (§1) Compounds were prepared as 400× DMSO stock solutions in a 1:4 dilution series then diluted […] in assay buffer (25 mM HEPES pH 7.5, 100 mM NaCl, 0.1% BSA, 0.005% Tween) immediately before use. Aliquots of 400 nM 6xHis-tagged BCL-xL, BCL-2, and BCL-w were thawed on ice and diluted to 0.4 (BCL-XL) or 0.8 (BCL-W and 2) nM in assay buffer. Aliquots of biotinylated BIM and BAD peptides were diluted in assay buffer to 120 and 60 nM respectively. Ten microliters of biotinylated peptide were added to wells of a 96-well PCR plate, followed by ten microliters of inhibitor, then ten microliters of BCL protein, BCL-XL with BAD and BCL-W/2 with BIM. The plates were sealed and incubated at room temperature. After 24 hr, 0.16 μg Anti-His conjugated AlphaLISA acceptor beads were added in 5 μL assay buffer. After one hour at room temperature, 0.16 μg AlphaScreen streptavidin donor beads were added in 5 μL assay buffer and plates were incubated an additional 30 min in the dark. Two 17 μL aliquots of each reaction were plated in a Perkin Elmer 384-well proxiplate, and plates were scanned for using a Perkin Elmer Enspire plate reader. Kd values were calculated in Prism Graph Pad using a one site competitive binding model and previously determined Kd values for each protein peptide pair. […]

BCL-2 = BCL-2 (Homo sapiens, UniProt P10415); assay: BCL-binding assay (AlphaLISA competition, BIM peptide); details: 6xHis BCL-2 with biotinylated BIM peptide, 24 hr incubation
Method: as §1

BCL-w = target: T1, BCL-w (Homo sapiens, UniProt Q92843); assay: as above; details: 6xHis BCL-w with biotinylated BIM peptide, 24 hr incubation
T1 sequence (Q92843 1-193): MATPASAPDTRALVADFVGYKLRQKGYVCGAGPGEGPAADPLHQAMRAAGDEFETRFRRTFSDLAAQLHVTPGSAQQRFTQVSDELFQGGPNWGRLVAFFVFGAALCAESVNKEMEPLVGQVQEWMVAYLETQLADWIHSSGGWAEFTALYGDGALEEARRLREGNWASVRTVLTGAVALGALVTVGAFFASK
Method: as §1

[1] = system: IMR-90 SnC (irradiated senescent IMR90 cells); assay: Senolysis assay (CellTiter-Glo viability); assay type: cell-based, human; details: for pEC50: Homo sapiens, IMR-90, light or radiation study, 72 h, X-ray irradiated senescent IMR90 cells, viability three days after compound addition; for SI (ratio of EC50 of non-senescent cells to EC50 of senescent cells): IMR90 non-senescent vs senescent cells
Method: IMR90 cells are maintained in DMEM supplemented with 10% FBS. To prepare a senescent population, cells were trypsinized, diluted to 50,000 per mL, and irradiated with 10-15 Gy of X-ray irradiation. Irradiated cells were plated at 5000 cells per well in one third of a 96-well plate and maintained for two weeks prior to the assay. Four days prior to the assay, non-senescent IMR90s were plated at 2500 per well in the second third of the plate. One day prior to the assay, 2500 non-senescent cells were plated in the final third of the plate. Compounds were prepared as a 200×DMSO dilution series then diluted to 1× in media immediately before adding to cells. Three days after compound addition, cell viability was measured using CellTiter-Glo reagent from Promega. Viability was calculated relative to a DMSO control and EC50 values are calculated in Prism GraphPad. […] The selectivity (SI) of the compounds described herein is a ratio of the EC50 of non-senescent cells to the EC50 of senescent cells. The SI of the compounds described herein is 10 or above for “A” selectivity, between 2 and 10 for “B” selectivity or 2 or less for “C” selectivity.

BCL-xL, sequence (Q07817 whole entry, species assumed): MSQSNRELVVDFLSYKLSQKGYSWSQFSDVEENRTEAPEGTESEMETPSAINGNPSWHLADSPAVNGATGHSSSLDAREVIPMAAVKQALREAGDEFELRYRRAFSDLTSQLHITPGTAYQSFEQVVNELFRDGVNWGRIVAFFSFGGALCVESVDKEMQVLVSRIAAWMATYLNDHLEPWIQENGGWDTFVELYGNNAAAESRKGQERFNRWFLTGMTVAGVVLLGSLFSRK
BCL-2, sequence (P10415 whole entry, species assumed): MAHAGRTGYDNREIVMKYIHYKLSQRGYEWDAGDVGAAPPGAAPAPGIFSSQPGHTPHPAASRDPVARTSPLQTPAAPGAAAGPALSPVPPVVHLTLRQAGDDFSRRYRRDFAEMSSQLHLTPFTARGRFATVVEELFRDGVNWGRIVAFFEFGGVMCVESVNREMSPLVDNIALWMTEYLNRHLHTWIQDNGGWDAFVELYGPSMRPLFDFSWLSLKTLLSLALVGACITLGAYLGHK

| SMILES | pKd (BCL-xL) | pKd (BCL-2) | pKd (BCL-w) | pEC50 [1] | SI (ratio of EC50 of non-senescent cells to EC50 of senescent cells) [1] |
| --- | --- | --- | --- | --- | --- |
| CCOP(=O)(CN1CCN(CC[C@H](CSc2ccccc2)Nc2ccc(S(=O)(=O)NC(=O)c3ccc(N4CCN(CC5=C(c6ccc(Cl)cc6)CCC(C)(C)C5)CC4)cc3)cc2S(=O)(=O)C(F)(F)F)CC1)OCOC(=O)OC(C)C (stereo partly drawn) [Compound 39, [[4-[(3R)-3-[4-[[4-[4-[[2-(4-Chlorophenyl)-5,5-dimethyl-cyclohexen-1-yl]methyl]piperazin-1-yl]benzoyl]sulfamoyl]-2-(trifluoromethylsulfonyl)anilino]-4-phenylsulfanyl-butyl]piperazin-1-yl]methyl-ethoxy-phosphoryl]oxymethyl isopropyl carbonate] | > 9.00 | > 9.00 | 7.30 to 8.00 | > 6.00 | A (10 or above) |
| CC1(C)CCC(c2ccc(Cl)cc2)=C(CN2CCN(c3ccc(C(=O)NS(=O)(=O)c4ccc(N[C@H](CCN5CCN(CCCP(=O)(OCOC(=O)C(C)(C)C)OCOC(=O)C(C)(C)C)CC5)CSc5ccccc5)c(S(=O)(=O)C(F)(F)F)c4)cc3)CC2)C1 [Compound 40] | > 9.00 | > 9.00 | 7.30 to 8.00 | < 5.00 | B (between 2 and 10) |
| CCOP(=O)(C=C1CCN(CC[C@H](CSc2ccccc2)Nc2ccc(S(=O)(=O)NC(=O)c3ccc(N4CCN(CC5=C(c6ccc(Cl)cc6)CCC(C)(C)C5)CC4)cc3)cc2S(=O)(=O)C(F)(F)F)CC1)OCC [Compound 41, Diethyl (R)-((1-(3-((4-(N-(4-(4-((4′-chloro-4,4-dimethyl-3,4,5,6-tetrahydro-[1,1′-biphenyl]-2-yl)methyl)piperazin-1-yl)benzoyl)sulfamoyl)-2-((trifluoromethyl)sulfonyl)phenyl)amino)-4-(phenylthio)butyl)piperidin-4-ylidene)methyl)phosphonate] | > 9.00 | > 9.00 | 8.00 to 9.00 | > 6.00 | A (10 or above) |
| CC1(C)CCC(c2ccc(Cl)cc2)=C(CN2CCN(c3ccc(C(=O)NS(=O)(=O)c4ccc(N[C@H](CCN5CCN(CCP(=O)(OCOC(=O)C(C)(C)C)OCOC(=O)C(C)(C)C)CC5)CSc5ccccc5)c(S(=O)(=O)C(F)(F)F)c4)cc3)CC2)C1 [Compound 43, (R)-(((2-(4-(3-((4-(N-(4-(4-((4′-chloro-4,4-dimethyl-3,4,5,6-tetrahydro-[1,1′-biphenyl]-2-yl)methyl)piperazin-1-yl)benzoyl)sulfamoyl)-2-((trifluoromethyl)sulfonyl)phenyl)amino)-4-(phenylthio)butyl)piperazin-1-yl)ethyl)phosphoryl)bis(oxy))bis(methylene) bis(2,2-dimethylpropanoate)] | 8.00 to 9.00 | > 9.00 | 7.30 to 8.00 | < 5.00 | – |
| CCOP(=O)(CN1CCN(CC[C@H](C[S+]([O-])c2ccccc2)Nc2ccc(S(=O)(=O)NC(=O)c3ccc(N4CCN(CC5=C(c6ccc(Cl)cc6)CCC(C)(C)C5)CC4)cc3)cc2S(=O)(=O)C(F)(F)F)CC1)OCC (stereo partly drawn) [Compound 44, Diethyl ((4-((3R)-3-((4-(N-(4-(4-((4′-chloro-4,4-dimethyl-3,4,5,6-tetrahydro-[1,1′-biphenyl]-2-yl)methyl)piperazin-1-yl)benzoyl)sulfamoyl)-2-((trifluoromethyl)sulfonyl)phenyl)amino)-4-(phenylsulfinyl)butyl)piperazin-1-yl)methyl)phosphonate] | > 9.00 | > 9.00 | 7.30 to 8.00 | 5.00 to 6.00 | B (between 2 and 10) |
| CC1(C)CCC(c2ccc(Cl)cc2)=C(CN2CCN(c3ccc(C(=O)NS(=O)(=O)c4ccc(N[C@H](CCN5CCN(CCP(=O)(O)OCOC(=O)C(C)(C)C)CC5)CSc5ccccc5)c(S(=O)(=O)C(F)(F)F)c4)cc3)CC2)C1 [Compound 45, (((2-(4-((R)-3-((4-(N-(4-(4-((4′-chloro-4,4-dimethyl-3,4,5,6-tetrahydro-[1,1′-biphenyl]-2-yl)methyl)piperazin-1-yl)benzoyl)sulfamoyl)-2-((trifluoromethyl)sulfonyl)phenyl)amino)-4-(phenylthio)butyl)piperazin-1-yl)ethyl)(hydroxy)phosphoryl)oxy)methyl pivalate] | > 9.00 | > 9.00 | 8.00 to 9.00 | < 5.00 | – |
| CC1(C)CCC(c2ccc(Cl)cc2)=C(CN2CCN(c3ccc(C(=O)NS(=O)(=O)c4ccc(N[C@H](CCN5CCC(CP(=O)(OCOC(=O)C(C)(C)C)OCOC(=O)C(C)(C)C)CC5)CSc5ccccc5)c(S(=O)(=O)C(F)(F)F)c4)cc3)CC2)C1 [Compound 46] | 8.00 to 9.00 | 8.00 to 9.00 | < 7.30 | < 5.00 | – |
| CC1(C)CCC(c2ccc(Cl)cc2)=C(CN2CCN(c3ccc(C(=O)NS(=O)(=O)c4ccc(N[C@H](CCN5CCC(CP(=O)(O)O)CC5)CSc5ccccc5)c(S(=O)(=O)C(F)(F)F)c4)cc3)CC2)C1 [Compound 47] | > 9.00 | > 9.00 | 8.00 to 9.00 | < 5.00 | – |
| CCOP(=O)(CC1CCN(CC[C@H](CSc2ccccc2)Nc2ccc(S(=O)(=O)NC(=O)c3ccc(N4CCN(CC5=C(c6ccc(Cl)cc6)CCC(C)(C)C5)CC4)cc3)cc2S(=O)(=O)C(F)(F)F)CC1)OCOC(=O)C(C)(C)C (stereo partly drawn) [Compound 48, (((1-((R)-3-((4-(N-(4-(4-((4′-chloro-4,4-dimethyl-3,4,5,6-tetrahydro-[1,1′-biphenyl]-2-yl)methyl)piperazin-1-yl)benzoyl)sulfamoyl)-2-((trifluoromethyl)sulfonyl)phenyl)amino)-4-(phenylthio)butyl)piperidin-4-yl)methyl)(ethoxy)phosphoryl)oxy)methyl pivalate] | > 9.00 | > 9.00 | 8.00 to 9.00 | > 6.00 | A (10 or above) |
| CCOP(=O)(CN1CCN(CC[C@H](CSc2ccccc2)Nc2ccc(S(=O)(=O)NC(=O)c3ccc(N4CCN(Cc5ccccc5-c5ccc(Cl)cc5)CC4)cc3)cc2S(=O)(=O)C(F)(F)F)CC1)OCC [Compound 51, Diethyl (R)-((4-(3-((4-(N-(4-(4-((4′-chloro-[1,1′-biphenyl]-2-yl)methyl)piperazin-1-yl)benzoyl)sulfamoyl)-2-((trifluoromethyl)sulfonyl)phenyl)amino)-4-(phenylthio)butyl)piperazin-1-yl)methyl)phosphonate] | > 9.00 | > 9.00 | 8.00 to 9.00 | 5.00 to 6.00 | B (between 2 and 10) |
| CCOP(=O)(O)CN1CCN(CC[C@H](CSc2ccccc2)Nc2ccc(S(=O)(=O)NC(=O)c3ccc(N4CCN(Cc5ccccc5-c5ccc(Cl)cc5)CC4)cc3)cc2S(=O)(=O)C(F)(F)F)CC1 [Compound 53, Ethyl hydrogen ((4-((R)-3-((4-(N-(4-(4-((4′-chloro-[1,1′-biphenyl]-2-yl)methyl)piperazin-1-yl)benzoyl)sulfamoyl)-2-((trifluoromethyl)sulfonyl)phenyl)amino)-4-(phenylthio)butyl)piperazin-1-yl)methyl)phosphonate] | > 9.00 | > 9.00 | > 9.00 | < 5.00 | – |
| CCOP(=O)(CN1CCN(CC[C@H](CSc2ccccc2)Nc2ccc(S(=O)(=O)NC(=O)c3ccc(N4CCN(Cc5ccccc5-c5ccc(Cl)cc5)CC4)cc3)cc2S(=O)(=O)C(F)(F)F)CC1)OCOC(=O)C(C)(C)C (stereo partly drawn) [Compound 54, (((4-((R)-3-((4-(N-(4-(4-((4′-chloro-[1,1′-biphenyl]-2-yl)methyl)piperazin-1-yl)benzoyl)sulfamoyl)-2-((trifluoromethyl)sulfonyl)phenyl)amino)-4-(phenylthio)butyl)piperazin-1-yl)methyl)(ethoxy)phosphoryl)oxy)methyl pivalate] | > 9.00 | > 9.00 | 8.00 to 9.00 | 5.00 to 6.00 | B (between 2 and 10) |
